Measurements from publication PMC8795738, “The Tarantula Venom Peptide Eo1a Binds to the Domain II S3-S4 Extracellular Loop of Voltage-Gated Sodium Channel NaV1.8 to Enhance Activation” (Frontiers in Pharmacology, 2022).
Where a SMILES comes first, the peptide text is derived from it. Bridges are numbered along the chain shown (N, C = ends).

How the values were obtained:
[1] = test system: NaV1.8 KO mice; assay: Spontaneous pain after intraplantar injection, NaV1.8 knockout mice; type: in vivo, mouse; conditions: Eo1a intraplantar, significantly reduced vs WT, *p < 0.05 unpaired t-test, mean ± SEM, n = 3–4 mice
Text: (§1) Adult male C57BL/6J mice aged 4–8 weeks were sourced from the Animal Resource Centre (Canning Vale, Western Australia). Adult male NaV1.8 knockouts ([Nassar et al., 2004]) (aged 8–11 weeks) and wild-type littermates were housed and tested at University College London. Animals were housed in groups of three or four per cage under 12-h light-dark cycles and were provided with standard rodent chow and water ad libitum. Ethical approval for experiments involving animals was obtained from The University of Queensland animal ethics committee (TRI/IMB/093/17, IMB/PACE/421/18) and the United Kingdom Home Office (project licence PPL 70/7382). All experiments were conducted in accordance with the International Association for the Study of Pain Guidelines for the Use of Animals in Research and the Australian Code of Practice for the Care and Use of Animals for Scientific Purposes, 8th edition (2013).
(§2) Eo1a (1 μM or 10 μM) was diluted in saline/0.1% BSA and administered by intraplantar injection to the left hind paw of mice in a volume of 40 μl under isoflurane (3%) anaesthesia, and spontaneous pain behaviours (licks, bites, shakes, and lifts of the hind paw) were counted by a blinded investigator for up to 40 min after the injection.

[2] = test system: mice; assay: Spontaneous pain behaviours after intraplantar injection in mice; type: in vivo, mouse; conditions: 40 μl intraplantar, n = 3–4
Text: as §1, §2

[3] = test system: NaV1.7 with DIV S1-S2 loop of NaV1.8; assay: Voltage-dependence of activation, NaV1.7/NaV1.8 chimera DIV S1-S2; type: cell-based, human; conditions: Eo1a 10 μM; NaV1.7 with NaV1.8 DIV S1-S2; HEK293 β1/β2, transient; mean ± SEM, n = 3–6 cells
Protocol: (§3) Human Embryonic Kidney (HEK) 293 cells stably expressing human NaV1.1 to NaV1.7/β1 (SB Drug Discovery, Glasgow, United Kingdom), Chinese Hamster Ovary (CHO) cells stably expressing human NaV1.8/β3 in a tetracycline-inducible system (ChanTest, Cleveland, OH, United States), and HEK293 cells stably expressing rat transient receptor potential vanilloid 1 (TRPV1) were cultured as previously described ([Yin et al., 2020]). Human KV2.1 and NaV1.7 mutants were transiently transfected into HEK293 cells stably expressing β1/β2 using Lipofectamine 2000 (Thermo Fisher Scientific, Scoresby, VIC, Australia) and used for patch-clamp experiments 48 h after transfection. Cells were grown in an incubator at 37°C with 5% CO2 and passaged every 3–4 d (at 70–80% confluency) using TrypLE Express (Thermo Fisher Scientific).
Wild-type (WT) hNaV1.7 cDNA (NM_002,977, a gift from Dr James Cox, University College London) was subjected to in vitro site-directed mutagenesis using the QuikChange™ XL mutagenesis kit (Agilent Technologies) following the manufacturer’s instructions. NaV1.7 mutants were generated by substituting the domain II (DII) S1-S2 loop, the DII S3-S4 loop, the domain IV (DIV) S1-S2 loop and the DIV S3-S4 loop in NaV1.7 with the corresponding regions of NaV1.8. The mutations were verified by sequencing at the Brisbane node of the Australian Genome Research Facility. […]

[4] = target: NaV1.8 (Homo sapiens, UniProt Q9Y5Y9); assay: Concentration-response of NaV1.8 peak current, QPatch whole-cell patch-clamp; type: cell-based; conditions: CHO cells, hNaV1.8/β3, holding −90 mV, 50 ms pulse to +10 mV every 20 s, 5 min incubation, ECS with 0.1% BSA, 1 μM TTX, pH 7.4, four-parameter Hill fit, mean ± SEM, n = 7 cells, read-out: EC50 for increase in NaV1.8 peak current
Protocol: as §3
Automated whole-cell patch-clamp recordings were performed with a QPatch-16 automated electrophysiology platform (Sophion Bioscience, Ballerup, Denmark) using single-hole (QPlate 16 with a standard resistance of 2 ± 0.4 MΩ) or multi-hole (QPlate 16X with a standard resistance 0.2 ± 0.04 MΩ, NaV1.8 only) as previously described ([McMahon et al., 2020]). […]

Sequence of NaV1.8 (Q9Y5Y9 whole entry): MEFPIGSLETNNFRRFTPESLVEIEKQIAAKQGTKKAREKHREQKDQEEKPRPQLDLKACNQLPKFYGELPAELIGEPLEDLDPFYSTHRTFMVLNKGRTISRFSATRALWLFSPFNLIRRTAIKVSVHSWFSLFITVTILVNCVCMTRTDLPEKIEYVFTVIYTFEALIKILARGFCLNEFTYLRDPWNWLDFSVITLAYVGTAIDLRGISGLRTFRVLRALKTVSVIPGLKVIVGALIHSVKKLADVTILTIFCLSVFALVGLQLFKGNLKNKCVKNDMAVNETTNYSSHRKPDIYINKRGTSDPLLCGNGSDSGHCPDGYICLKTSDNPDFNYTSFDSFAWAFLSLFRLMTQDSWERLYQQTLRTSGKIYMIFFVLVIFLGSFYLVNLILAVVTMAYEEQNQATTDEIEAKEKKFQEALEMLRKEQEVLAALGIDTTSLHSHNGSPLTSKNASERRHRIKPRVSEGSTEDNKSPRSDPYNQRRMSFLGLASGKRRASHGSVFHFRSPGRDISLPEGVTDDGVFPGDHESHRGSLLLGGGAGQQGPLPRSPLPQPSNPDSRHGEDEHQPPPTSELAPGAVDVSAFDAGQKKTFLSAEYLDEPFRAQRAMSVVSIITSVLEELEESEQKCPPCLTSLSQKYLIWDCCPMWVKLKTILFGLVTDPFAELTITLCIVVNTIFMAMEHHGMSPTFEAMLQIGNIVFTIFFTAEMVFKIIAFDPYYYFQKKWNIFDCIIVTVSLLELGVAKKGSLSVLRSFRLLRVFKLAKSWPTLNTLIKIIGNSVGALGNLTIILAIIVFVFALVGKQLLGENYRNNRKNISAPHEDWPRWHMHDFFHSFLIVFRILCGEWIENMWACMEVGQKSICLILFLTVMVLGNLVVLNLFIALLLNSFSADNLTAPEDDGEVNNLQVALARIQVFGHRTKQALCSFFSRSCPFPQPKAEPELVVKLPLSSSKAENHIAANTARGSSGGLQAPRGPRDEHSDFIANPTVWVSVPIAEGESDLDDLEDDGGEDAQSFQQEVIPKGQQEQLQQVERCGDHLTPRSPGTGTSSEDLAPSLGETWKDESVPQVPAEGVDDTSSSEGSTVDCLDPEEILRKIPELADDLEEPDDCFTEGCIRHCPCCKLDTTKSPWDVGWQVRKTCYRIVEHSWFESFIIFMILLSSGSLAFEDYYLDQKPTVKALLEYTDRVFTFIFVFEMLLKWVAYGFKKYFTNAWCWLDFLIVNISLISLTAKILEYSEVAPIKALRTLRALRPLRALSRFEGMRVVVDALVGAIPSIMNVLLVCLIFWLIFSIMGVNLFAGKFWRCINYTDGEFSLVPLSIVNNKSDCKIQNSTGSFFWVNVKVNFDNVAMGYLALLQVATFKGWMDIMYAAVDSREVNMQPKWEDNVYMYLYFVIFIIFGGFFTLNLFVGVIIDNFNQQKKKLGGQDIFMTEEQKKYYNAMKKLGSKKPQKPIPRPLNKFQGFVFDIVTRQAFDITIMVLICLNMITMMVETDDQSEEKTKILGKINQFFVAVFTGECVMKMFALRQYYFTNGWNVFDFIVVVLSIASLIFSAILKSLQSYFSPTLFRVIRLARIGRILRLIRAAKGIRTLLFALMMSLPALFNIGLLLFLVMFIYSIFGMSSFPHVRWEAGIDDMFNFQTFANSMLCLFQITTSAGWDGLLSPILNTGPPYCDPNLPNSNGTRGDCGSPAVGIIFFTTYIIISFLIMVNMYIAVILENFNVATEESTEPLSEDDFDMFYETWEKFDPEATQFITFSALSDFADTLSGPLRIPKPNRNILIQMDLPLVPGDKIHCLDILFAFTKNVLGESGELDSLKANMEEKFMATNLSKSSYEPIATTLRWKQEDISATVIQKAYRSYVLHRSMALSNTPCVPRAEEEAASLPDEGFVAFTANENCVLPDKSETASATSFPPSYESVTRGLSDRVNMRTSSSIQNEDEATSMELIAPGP

SMILES: CC[C@H](C)[C@@H]1NC(=O)[C@H](CCCNC(=N)N)NC(=O)[C@@H]2CSSC[C@@H]3NC(=O)CNC(=O)CNC(=O)[C@H](CC(C)C)NC(=O)[C@H](Cc4ccccc4)NC(=O)[C@H](Cc4c[nH]c5ccccc45)NC(=O)[C@H](CCCNC(=N)N)NC(=O)[C@@H](NC(=O)[C@@H](N)CC(=O)O)CSSC[C@H](NC(=O)[C@H](CSSC[C@@H](C(=O)N[C@@H](C)C(=O)N[C@@H](Cc4c[nH]c5ccccc45)C(=O)N[C@@H](CC(=O)O)C(=O)NCC(=O)N[C@H](C(=O)N[C@@H](Cc4ccccc4)C(N)=O)[C@@H](C)O)NC(=O)[C@H](Cc4ccc(O)cc4)NC(=O)[C@H](CCCCN)NC(=O)[C@H]([C@@H](C)CC)NC(=O)[C@H](Cc4ccc(O)cc4)NC(=O)CNC(=O)[C@H](CC(=O)O)NC1=O)NC(=O)[C@H](CC(=O)O)NC(=O)[C@H](CO)NC(=O)[C@H](CC(=O)O)NC(=O)[C@H](CCCCN)NC(=O)[C@H](CO)NC3=O)C(=O)N[C@@H](CCCCN)C(=O)N[C@@H](Cc1c[nH]cn1)C(=O)N[C@@H](CC(C)C)C(=O)N[C@@H](C)C(=O)N2 [Eo1a] (H-DCRWFLGGCSKDSDCCKHLACRIDGYIKYCAWDGTF-NH2; disulfide 2-16, 9-21, 15-30 (inferred); N-terminus assumed)
- spontaneous pain (flinches) [1]: 216 ± 26 Flinches/15 min
- spontaneous pain behaviours ([2]; Eo1a 1 μM): induced spontaneous pain behaviours
- spontaneous pain behaviours ([2]; Eo1a 10 μM, gradually subsided over 30 min): caused spontaneous pain behaviours that gradually subsided over 30 min
- ΔV1/2 activation [3]: −4.8 ± 0.6 mV
- EC50 [4]: 0.894 ± 0.146 µM
